Test results from ChEMBL document CHEMBL5723586, “Data for DCP probe BI-1915” (2024).
One block for each molecule: values may come before it. Calls of active or inactive are those of the source. The calls are words filed in the database; no cut-off is given here.

Legend:
[1] = target: Angiotensin-converting enzyme (Homo sapiens) (UniProt P12821); experiment: Activity against ACE(HU_AMTCH400) in the Eurofins Cerep SafetyScreen44 (BI) by Photometry (Cerep_3441); conditions: Compound concentration 10.0 uM
[2] = target: Glucocorticoid receptor (Homo sapiens) (UniProt P04150); experiment: GR Eurofins-Cerep binding assay; conditions: Compound concentration 10.0 uM
[3] = target: 3',5'-cyclic-AMP phosphodiesterase 4D (Homo sapiens) (UniProt Q08499); experiment: Inhibitor of PDE4D2 in the Eurofins Cerep SafetyScreen44 (BI) by Scintillation counting (Cerep_4077); conditions: Compound concentration 10.0 uM
[4] = target: Beta-1 adrenergic receptor (Homo sapiens) (UniProt P08588); experiment: beta 1 Eurofins-Cerep binding assay; parameters: ligand concentration 0.3 nM; conditions: Compound concentration 10.0 uM
[5] = target: Histamine H1 receptor (Homo sapiens) (UniProt P35367); experiment: H1 Eurofins-Cerep binding assay; parameters: ligand concentration 1 nM; conditions: Compound concentration 10.0 uM
[6] = target: 5-hydroxytryptamine receptor 2B (Homo sapiens) (UniProt P41595); experiment: 5-HT2B Eurofins-Cerep binding assay; conditions: Compound concentration 10.0 uM
[7] = target: 5-hydroxytryptamine receptor 1A (Homo sapiens) (UniProt P08908); experiment: 5-HT1A Eurofins-Cerep binding assay; parameters: ligand concentration 0.5 nM; conditions: Compound concentration 10.0 uM
[8] = target: Alpha-1A adrenergic receptor (Homo sapiens) (UniProt P35348); experiment: Agonist activity in the Eurofins Cerep SafetyScreen44 (BI) against ALPHA1AH_ANTAG by Scintillation counting (Cerep_2338); conditions: Compound concentration 10.0 uM
[9] = target: Sodium-dependent serotonin transporter (Homo sapiens) (UniProt P31645); experiment: 5-HT transporter Eurofins-Cerep binding assay; parameters: ligand concentration 2 nM; conditions: Compound concentration 10.0 uM
[10] = target: Mu-type opioid receptor (Homo sapiens) (UniProt P35372); experiment: mu (MOP) Eurofins-Cerep binding assay; parameters: ligand concentration 0.5 nM; conditions: Compound concentration 10.0 uM
[11] = target: 5-hydroxytryptamine receptor 2A (Homo sapiens) (UniProt P28223); experiment: Agonist activity in the Eurofins Cerep SafetyScreen44 (BI) against 5HT2AH_AGON by Scintillation counting (Cerep_471); conditions: Compound concentration 10.0 uM
[12] = target: D(2) dopamine receptor (Homo sapiens) (UniProt P14416); experiment: Agonist activity in the Eurofins Cerep SafetyScreen44 (BI) against D2SH_AGON by Scintillation counting (Cerep_1322); conditions: Compound concentration 10.0 uM
[13] = target: Adenosine receptor A2a (Homo sapiens) (UniProt P29274); experiment: A2A Eurofins-Cerep binding assay; parameters: ligand concentration 6 nM; conditions: Compound concentration 10.0 uM
[14] = target: Prostaglandin G/H synthase 2 (Homo sapiens) (UniProt P35354); experiment: Inhibitor of COX-2 in the Eurofins Cerep SafetyScreen44 (BI) by Fluorimetry (Cerep_4186); conditions: Compound concentration 10.0 uM
[15] = target: cGMP-inhibited 3',5'-cyclic phosphodiesterase 3A (Homo sapiens) (UniProt Q14432); experiment: Inhibitor of PDE3A in the Eurofins Cerep SafetyScreen44 (BI) by HTRF-homogeneous time resolved fluoresce (Cerep_4072); conditions: Compound concentration 10.0 uM
[16] = target: Cholecystokinin receptor type A (Homo sapiens) (UniProt P32238); experiment: CCK1 (CCKA) Eurofins-Cerep binding assay; parameters: ligand concentration 0.08 nM; conditions: Compound concentration 10.0 uM
[17] = target: Cannabinoid receptor 1 (Homo sapiens) (UniProt P21554); experiment: CB1 Eurofins-Cerep binding assay; conditions: Compound concentration 10.0 uM
[18] = target: Cannabinoid receptor 2 (Homo sapiens) (UniProt P34972); experiment: Activity against CB2/PERIPH/H in the Eurofins Cerep SafetyScreen44 (BI) by Radioactive Assay (Cerep_37); conditions: Compound concentration 10.0 uM
[19] = target: Prostaglandin G/H synthase 1 (Homo sapiens) (UniProt P23219); experiment: Inhibitor of COX-1 in the Eurofins Cerep SafetyScreen44 (BI) by Fluorimetry (Cerep_4173); conditions: Compound concentration 10.0 uM
hERG (KCNH2) = hERG (KCNH2) (Homo sapiens, UniProt Q12809); experiment: Inhibitor of HERG_DOFETILIDE in the Eurofins Cerep SafetyScreen44 (BI) by Scintillation counting (Cerep_4094); parameters: scale not given: the % may be the effect or the level left; conditions: probe [3H] Dofetilide, compound concentration 10 uM, read-out: % Ctrl
[20] = target: Glutamate NMDA receptor (Rattus norvegicus) (UniProt P35439+Q00959+Q00960+Q00961+Q62645+Q8VHN2+Q9R1M7); experiment: Inhibitor of NMDA/R in the Eurofins Cerep SafetyScreen44 (BI) by Radioactive Assay (Cerep_66); format: protein-complex assay; conditions: Compound concentration 10.0 uM
[21] = target: 5-hydroxytryptamine receptor 1B (Homo sapiens) (UniProt P28222); experiment: 5-HT1B Eurofins-Cerep binding assay; parameters: ligand concentration 1 nM; conditions: Compound concentration 10.0 uM
[22] = target: Delta-type opioid receptor (Homo sapiens) (UniProt P41143); experiment: delta (DOP) Eurofins-Cerep binding assay; parameters: ligand concentration 0.5 nM; conditions: Compound concentration 10.0 uM
[23] = target: Kappa-type opioid receptor (Homo sapiens) (UniProt P41145); experiment: kappa (KOP) Eurofins-Cerep binding assay; conditions: Compound concentration 10.0 uM
[24] = target: Vasopressin V1a receptor (Homo sapiens) (UniProt P37288); experiment: V1a Eurofins-Cerep binding assay; parameters: ligand concentration 0.3 nM; conditions: Compound concentration 10.0 uM
[25] = target: Muscarinic acetylcholine receptor M3 (Homo sapiens) (UniProt P20309); experiment: M3 Eurofins-Cerep binding assay; parameters: ligand concentration 0.2 nM; conditions: Compound concentration 10.0 uM
[26] = target: Tyrosine-protein kinase Lck (Homo sapiens) (UniProt P06239); experiment: Inhibitor of LCK_CE in the Eurofins Cerep SafetyScreen44 (BI) by lanthanide chelation excitation (Cerep_2906); conditions: Compound concentration 10.0 uM
[27] = target: Androgen receptor (Homo sapiens) (UniProt P10275); conditions: Compound concentration 10.0 uM
Description: Activity against ANDROGEN/H in the Eurofins Cerep SafetyScreen44 (BI) by Radioactive Assay (Cerep_933)

[28] = target: 5-hydroxytryptamine receptor 3A (Homo sapiens) (UniProt P46098); experiment: 5-HT3 Eurofins-Cerep binding assay; parameters: ligand concentration 0.5 nM; conditions: Compound concentration 10.0 uM
[29] = target: MAO-A (amine oxidase [flavin-containing] A) (Homo sapiens, UniProt P21397); experiment: Agonist activity in the Eurofins Cerep SafetyScreen44 (BI) against MAO-A_ANTAG by Scintillation counting (Cerep_443); parameters: scale not given: the % may be the effect or the level left; conditions: rat; compound concentration 10 uM; target entry is the homologue from another species; read-out: % Ctrl
[30] = target: Sodium-dependent noradrenaline transporter (Homo sapiens) (UniProt P23975); experiment: norepinephrine transporter Eurofins-Cerep binding assay; parameters: ligand concentration 1 nM; conditions: Compound concentration 10.0 uM
[31] = target: Beta-2 adrenergic receptor (Homo sapiens) (UniProt P07550); experiment: beta 2 Eurofins-Cerep binding assay; conditions: Compound concentration 10.0 uM
[32] = target: Sodium-dependent dopamine transporter (Homo sapiens) (UniProt Q01959); experiment: dopamine transporter Eurofins-Cerep binding assay; conditions: Compound concentration 10.0 uM
[33] = target: Muscarinic acetylcholine receptor M1 (Homo sapiens) (UniProt P11229); experiment: M1 Eurofins-Cerep binding assay; parameters: ligand concentration 2 nM; conditions: Compound concentration 10.0 uM
Rattus norvegicus [34] = species on record: Rattus norvegicus; experiment: Activity against BZD/CENTR/R in the Eurofins Cerep SafetyScreen44 (BI) by Radioactive Assay (Cerep_28); format: protein-complex assay; conditions: Compound concentration 10.0 uM
[35] = target: Histamine H2 receptor (Homo sapiens) (UniProt P25021); experiment: H2 Eurofins-Cerep binding assay; parameters: ligand concentration 0.075 nM; conditions: Compound concentration 10.0 uM
Rattus norvegicus [36] = species on record: Rattus norvegicus; experiment: KV channel Eurofins-Cerep binding assay; parameters: ligand concentration 0.01 nM; conditions: Compound concentration 10.0 uM
[37] = target: Muscarinic acetylcholine receptor M2 (Homo sapiens) (UniProt P08172); experiment: M2 Eurofins-Cerep binding assay; parameters: ligand concentration 2 nM; conditions: Compound concentration 10.0 uM
[38] = target: Alpha-2A adrenergic receptor (Homo sapiens) (UniProt P08913); experiment: Inhibitor of ALPHA2A/HU in the Eurofins Cerep SafetyScreen44 (BI) by Radioactive Assay (Cerep_13); conditions: Compound concentration 10.0 uM
[39] = target: L-type calcium channel (dihydropyridine site), Cav1.2 alpha-1C (Rattus norvegicus, UniProt P22002); experiment: Inhibitor of CA+/DHPSI/R in the Eurofins Cerep SafetyScreen44 (BI) by Radioactive Assay (Cerep_161); format: protein assay; parameters: scale not given: the % may be the effect or the level left; conditions: rat brain, probe [3H](+)PN200-110, compound concentration 10 uM, read-out: % Ctrl
Homo sapiens = species on record: Homo sapiens; experiment: Agonist activity in the Eurofins Cerep SafetyScreen44 (BI) against N_NEURO_A4B2 by Radioligand Binding (Cerep_3029); format: protein-complex assay; conditions: Compound concentration 10.0 uM
[40] = target: Endothelin-1 receptor (Homo sapiens) (UniProt P25101); experiment: ETA Eurofins-Cerep binding assay; parameters: ligand concentration 0.03 nM; conditions: Compound concentration 10.0 uM
[41] = target: D(1A) dopamine receptor (Homo sapiens) (UniProt P21728); experiment: D1 Eurofins-Cerep binding assay; parameters: ligand concentration 0.3 nM; conditions: Compound concentration 10.0 uM
Procathepsin L = Procathepsin L (Homo sapiens, UniProt P07711); experiment: Luminescent based enzymatic assay (CTSL)
Cathepsin S = Cathepsin S (Homo sapiens, UniProt P25774); experiment: Scintillation proximity assay (CTSS)
Cathepsin K = Cathepsin K (Homo sapiens, UniProt P43235); experiment: Luminescent based enzymatic assay (CTSK)
Cathepsin B = Cathepsin B (Homo sapiens, UniProt P07858); experiment: Luminescent based enzymatic assay (CTSB)

Sequence of Cannabinoid receptor 2 (Homo sapiens) (P34972 whole entry): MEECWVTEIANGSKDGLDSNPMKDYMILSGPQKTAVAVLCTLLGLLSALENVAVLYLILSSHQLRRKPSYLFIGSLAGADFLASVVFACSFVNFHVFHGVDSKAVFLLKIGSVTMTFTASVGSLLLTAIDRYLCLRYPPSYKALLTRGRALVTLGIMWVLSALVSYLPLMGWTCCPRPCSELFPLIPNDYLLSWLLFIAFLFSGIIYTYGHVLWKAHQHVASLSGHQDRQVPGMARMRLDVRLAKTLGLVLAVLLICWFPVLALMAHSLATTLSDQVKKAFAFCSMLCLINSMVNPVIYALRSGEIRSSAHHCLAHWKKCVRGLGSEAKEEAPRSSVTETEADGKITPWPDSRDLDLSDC
Sequence of 3',5'-cyclic-AMP phosphodiesterase 4D (Homo sapiens) (Q08499 whole entry): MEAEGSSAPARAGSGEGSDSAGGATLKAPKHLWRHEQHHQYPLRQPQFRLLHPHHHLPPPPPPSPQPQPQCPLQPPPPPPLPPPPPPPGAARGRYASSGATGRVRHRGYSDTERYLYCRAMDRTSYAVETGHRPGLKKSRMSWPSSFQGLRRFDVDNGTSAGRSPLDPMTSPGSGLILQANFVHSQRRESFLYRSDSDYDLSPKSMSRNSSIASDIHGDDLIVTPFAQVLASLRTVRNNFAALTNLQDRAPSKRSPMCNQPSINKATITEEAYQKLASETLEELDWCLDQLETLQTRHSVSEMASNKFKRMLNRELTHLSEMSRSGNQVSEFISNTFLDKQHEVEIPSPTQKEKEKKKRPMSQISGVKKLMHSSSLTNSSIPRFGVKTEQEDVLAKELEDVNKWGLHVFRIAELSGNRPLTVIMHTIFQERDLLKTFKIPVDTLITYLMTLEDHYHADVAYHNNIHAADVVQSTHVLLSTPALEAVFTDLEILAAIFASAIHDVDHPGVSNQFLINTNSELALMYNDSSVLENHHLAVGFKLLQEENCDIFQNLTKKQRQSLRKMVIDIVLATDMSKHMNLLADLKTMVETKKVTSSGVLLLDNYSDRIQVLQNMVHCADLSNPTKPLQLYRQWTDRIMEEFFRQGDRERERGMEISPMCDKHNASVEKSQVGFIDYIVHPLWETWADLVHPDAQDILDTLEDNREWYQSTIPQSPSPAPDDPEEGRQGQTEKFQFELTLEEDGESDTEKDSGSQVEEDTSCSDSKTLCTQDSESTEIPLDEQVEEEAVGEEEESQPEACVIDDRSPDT
Sequence of 5-hydroxytryptamine receptor 1A (Homo sapiens) (P08908 whole entry): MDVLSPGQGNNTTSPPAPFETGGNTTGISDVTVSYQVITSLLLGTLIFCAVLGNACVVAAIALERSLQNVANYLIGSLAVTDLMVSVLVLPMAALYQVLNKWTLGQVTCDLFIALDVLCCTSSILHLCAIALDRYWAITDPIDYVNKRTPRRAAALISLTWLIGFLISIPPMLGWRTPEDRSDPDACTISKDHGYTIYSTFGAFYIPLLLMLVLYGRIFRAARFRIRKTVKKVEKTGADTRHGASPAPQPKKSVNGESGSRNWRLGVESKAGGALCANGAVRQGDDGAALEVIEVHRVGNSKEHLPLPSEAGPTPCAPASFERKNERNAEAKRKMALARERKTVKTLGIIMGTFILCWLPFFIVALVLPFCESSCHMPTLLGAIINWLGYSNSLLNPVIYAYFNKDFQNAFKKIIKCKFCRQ
Sequence of Histamine H2 receptor (Homo sapiens) (P25021 whole entry): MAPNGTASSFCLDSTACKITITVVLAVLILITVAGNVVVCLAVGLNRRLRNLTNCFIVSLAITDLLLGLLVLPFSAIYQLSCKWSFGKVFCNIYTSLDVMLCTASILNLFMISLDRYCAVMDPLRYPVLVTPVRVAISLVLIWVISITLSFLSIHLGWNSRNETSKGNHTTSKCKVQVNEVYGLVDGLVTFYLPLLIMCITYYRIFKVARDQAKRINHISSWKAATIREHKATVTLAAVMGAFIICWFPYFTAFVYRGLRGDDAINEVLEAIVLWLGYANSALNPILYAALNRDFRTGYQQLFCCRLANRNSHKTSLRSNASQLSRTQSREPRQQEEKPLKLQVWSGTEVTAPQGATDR
Sequence of Mu-type opioid receptor (Homo sapiens) (P35372 whole entry): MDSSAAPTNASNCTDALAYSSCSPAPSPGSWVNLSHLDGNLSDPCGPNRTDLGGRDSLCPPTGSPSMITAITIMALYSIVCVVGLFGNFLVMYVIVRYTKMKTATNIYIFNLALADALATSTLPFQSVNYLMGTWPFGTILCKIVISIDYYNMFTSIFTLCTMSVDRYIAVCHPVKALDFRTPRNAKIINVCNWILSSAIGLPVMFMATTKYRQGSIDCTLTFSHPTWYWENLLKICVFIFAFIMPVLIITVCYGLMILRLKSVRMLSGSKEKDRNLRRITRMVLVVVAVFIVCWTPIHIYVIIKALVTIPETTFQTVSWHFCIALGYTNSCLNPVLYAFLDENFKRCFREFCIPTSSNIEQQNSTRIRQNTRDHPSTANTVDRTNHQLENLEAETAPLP
Sequence of D(1A) dopamine receptor (Homo sapiens) (P21728 whole entry): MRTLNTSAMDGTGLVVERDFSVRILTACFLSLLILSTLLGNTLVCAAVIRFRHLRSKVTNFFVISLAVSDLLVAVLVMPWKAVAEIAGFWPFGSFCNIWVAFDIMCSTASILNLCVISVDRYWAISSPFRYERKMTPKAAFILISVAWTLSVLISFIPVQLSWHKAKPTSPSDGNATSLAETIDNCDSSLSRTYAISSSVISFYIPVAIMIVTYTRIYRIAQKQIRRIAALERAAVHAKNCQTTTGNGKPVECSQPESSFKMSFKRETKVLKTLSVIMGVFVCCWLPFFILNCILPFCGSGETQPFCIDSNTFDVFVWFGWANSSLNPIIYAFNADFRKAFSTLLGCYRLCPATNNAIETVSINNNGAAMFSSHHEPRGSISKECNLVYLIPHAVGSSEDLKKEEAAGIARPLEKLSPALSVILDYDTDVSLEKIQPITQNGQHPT
Sequence of Cholecystokinin receptor type A (Homo sapiens) (P32238 whole entry): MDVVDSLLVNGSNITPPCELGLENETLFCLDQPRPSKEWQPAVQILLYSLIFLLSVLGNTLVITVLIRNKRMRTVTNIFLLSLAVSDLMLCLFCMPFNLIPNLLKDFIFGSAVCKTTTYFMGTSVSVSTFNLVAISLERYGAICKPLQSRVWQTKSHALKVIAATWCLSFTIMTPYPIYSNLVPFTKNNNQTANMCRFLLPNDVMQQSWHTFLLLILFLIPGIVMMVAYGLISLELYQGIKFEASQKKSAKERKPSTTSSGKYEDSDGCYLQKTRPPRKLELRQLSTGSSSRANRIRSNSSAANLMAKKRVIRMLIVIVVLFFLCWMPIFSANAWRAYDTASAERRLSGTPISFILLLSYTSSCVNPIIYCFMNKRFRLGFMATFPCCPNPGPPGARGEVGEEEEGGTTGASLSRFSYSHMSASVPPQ
Sequence of D(2) dopamine receptor (Homo sapiens) (P14416 whole entry): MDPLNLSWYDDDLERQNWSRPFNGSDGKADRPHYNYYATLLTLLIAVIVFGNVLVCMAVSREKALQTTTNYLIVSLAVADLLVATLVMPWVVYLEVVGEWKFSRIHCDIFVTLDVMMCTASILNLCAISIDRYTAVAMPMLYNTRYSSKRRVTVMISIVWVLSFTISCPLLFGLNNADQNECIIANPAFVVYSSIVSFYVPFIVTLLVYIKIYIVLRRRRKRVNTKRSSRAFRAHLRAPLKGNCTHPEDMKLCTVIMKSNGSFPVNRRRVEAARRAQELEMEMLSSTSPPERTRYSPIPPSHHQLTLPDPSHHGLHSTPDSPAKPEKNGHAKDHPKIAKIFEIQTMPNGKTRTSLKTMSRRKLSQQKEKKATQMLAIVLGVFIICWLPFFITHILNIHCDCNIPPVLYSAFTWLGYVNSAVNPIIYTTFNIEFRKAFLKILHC
Sequence of Beta-1 adrenergic receptor (Homo sapiens) (P08588 whole entry, looked up): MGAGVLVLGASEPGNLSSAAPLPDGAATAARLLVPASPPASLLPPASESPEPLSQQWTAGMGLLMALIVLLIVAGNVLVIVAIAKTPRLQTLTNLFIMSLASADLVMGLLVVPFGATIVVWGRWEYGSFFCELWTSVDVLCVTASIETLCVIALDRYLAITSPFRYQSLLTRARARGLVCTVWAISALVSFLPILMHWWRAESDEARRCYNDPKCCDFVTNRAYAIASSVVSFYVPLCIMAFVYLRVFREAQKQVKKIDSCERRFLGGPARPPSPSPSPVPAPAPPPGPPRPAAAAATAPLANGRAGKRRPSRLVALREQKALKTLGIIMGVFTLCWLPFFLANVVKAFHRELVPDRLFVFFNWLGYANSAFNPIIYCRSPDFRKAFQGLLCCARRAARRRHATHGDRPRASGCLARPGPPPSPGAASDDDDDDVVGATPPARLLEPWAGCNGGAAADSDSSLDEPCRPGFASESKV
Sequence of 5-hydroxytryptamine receptor 3A (Homo sapiens) (P46098 whole entry): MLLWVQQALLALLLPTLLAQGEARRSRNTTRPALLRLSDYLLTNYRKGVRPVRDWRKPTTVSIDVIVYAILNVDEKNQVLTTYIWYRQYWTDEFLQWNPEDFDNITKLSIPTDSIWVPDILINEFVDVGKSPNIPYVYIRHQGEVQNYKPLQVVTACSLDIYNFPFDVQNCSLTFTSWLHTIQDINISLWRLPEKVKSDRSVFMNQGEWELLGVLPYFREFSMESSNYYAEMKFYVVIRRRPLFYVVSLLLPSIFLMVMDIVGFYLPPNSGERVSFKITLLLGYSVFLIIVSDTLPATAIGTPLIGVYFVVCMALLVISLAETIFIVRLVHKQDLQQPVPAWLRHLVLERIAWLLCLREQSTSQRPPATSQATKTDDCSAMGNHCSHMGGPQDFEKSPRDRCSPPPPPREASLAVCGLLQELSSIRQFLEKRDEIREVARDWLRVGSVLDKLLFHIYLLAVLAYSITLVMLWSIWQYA
Sequence of Cathepsin S (P25774 whole entry): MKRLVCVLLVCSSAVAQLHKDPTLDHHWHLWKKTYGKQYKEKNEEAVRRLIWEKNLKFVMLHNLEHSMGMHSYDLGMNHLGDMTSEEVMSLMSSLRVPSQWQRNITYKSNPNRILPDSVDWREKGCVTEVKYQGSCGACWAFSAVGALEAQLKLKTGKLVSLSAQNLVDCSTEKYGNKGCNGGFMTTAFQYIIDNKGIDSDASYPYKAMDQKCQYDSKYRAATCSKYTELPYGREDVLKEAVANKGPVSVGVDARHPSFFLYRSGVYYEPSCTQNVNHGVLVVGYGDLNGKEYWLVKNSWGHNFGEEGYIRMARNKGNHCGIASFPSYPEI

- residual activity [2]: 105%
- residual activity [4]: 97%
- residual activity [5]: 106%
- residual activity [6]: 117%
- residual activity [7]: 97%
- residual activity [9]: 106%
- residual activity [10]: 96%
- residual activity [13]: 87%
- residual activity [16]: 96%
- residual activity [17]: 112%
- residual activity [21]: 61%
- residual activity [22]: 106%
- residual activity [23]: 96%
- residual activity [24]: 94%
- residual activity [25]: 112%
- residual activity [27]: 110%
- residual activity [28]: 97%
- residual activity [30]: 120%
- residual activity [31]: 92%
- residual activity [32]: 105%
- residual activity [33]: 108%
- residual activity [35]: 92%
- residual activity (Rattus norvegicus [36]): 110%
- residual activity [37]: 125%
- residual activity [40]: 112%
- residual activity [41]: 105%
Compound: CN1CCC(C#N)(NC(=O)[C@@H](NC(=O)N2CCOCC2)C(C)(C)C)CC1
- residual activity [1]: 105%
- residual activity [3]: 105%
- residual activity [8]: 104%
- residual activity [11]: 123%
- residual activity [12]: 107%
- residual activity [14]: 90%
- residual activity [15]: 88%
- residual activity [18]: 109%
- residual activity [19]: 108%
- activity at 10 µM (hERG (KCNH2)): 98% (not active)
- residual activity [20]: 92%
- residual activity [26]: 99%
- activity at 10 µM [29]: 105% (not active)
- residual activity (Rattus norvegicus [34]): 111%
- residual activity [38]: 80%
- activity at 10 µM [39]: 115% (not active)
- residual activity (Homo sapiens): 98%

- residual activity [2]: 102%
- residual activity [4]: 101%
- residual activity [5]: 101%
- IC50 (Procathepsin L): > 30 µM (not active)
- residual activity [6]: 118%
- residual activity [7]: 104%
- residual activity [9]: 106%
- residual activity [10]: 81%
- residual activity [13]: 102%
- residual activity [16]: 88%
- Kd (Cathepsin S): 0.031 µM (active)
- residual activity [17]: 116%
- residual activity [21]: 92.5%
- residual activity [22]: 92.5%
- residual activity [23]: 84.5%
- IC50 (Cathepsin K): > 10 µM (not active)
- residual activity [24]: 92.5%
- residual activity [25]: 106%
- residual activity [27]: 107%
- residual activity [28]: 100%
- IC50 (Cathepsin B): > 10 µM (not active)
- residual activity [30]: 103%
- residual activity [31]: 103%
- residual activity [32]: 98.5%
- residual activity [33]: 105%
- residual activity [35]: 106%
- residual activity (Rattus norvegicus [36]): 109%
- residual activity [37]: 106%
- residual activity [40]: 106%
- residual activity [41]: 94%
Compound: CCC(C)(C)CC[C@H](NC(=O)N1CCOCC1)C(=O)NC1(C#N)CCN(C)CC1
- residual activity [1]: 98.5%
- residual activity [3]: 100%
- residual activity [8]: 110%
- residual activity [11]: 104%
- residual activity [12]: 106%
- residual activity [14]: 104%
- residual activity [15]: 103%
- residual activity [18]: 106%
- residual activity [19]: 112%
- activity at 10 µM (hERG (KCNH2)): 100% (not active)
- residual activity [20]: 106%
- residual activity [26]: 96.5%
- activity at 10 µM [29]: 108% (not active)
- residual activity (Rattus norvegicus [34]): 114%
- residual activity [38]: 97%
- activity at 10 µM [39]: 106% (not active)
- residual activity (Homo sapiens): 114%
